Experimental data reported in publication PMC9046208, “Foldamers reveal and validate therapeutic targets associated with toxic α-synuclein self-assembly” (Nature Communications, 2022).

How the values were obtained:
[1] = test system: HEK cells expressing αS-A53T-YFP; experiment: MTT viability of HEK cells treated with PMCA samples / PD fibrils; type: cell-based; details: for Relative cell viability (Supp. Figure 27): HEK cells, PD+SK-129
Method: The HEK293 cells that stably express αS-A53T-YFP and αS-YFP were grown in DMEM with 10% FBS and 1% pen/strep and cultured in an incubator at 37 °C and 5% CO2(g). A total of 60,000 cells per well in 300 µL media were plated in a µ-slide eight-well plate (Ibidi, Munich, Germany) and incubated for 24 h to adhere to the plate. […] Next, the plate was incubated for 24 h, followed by the addition of 30 µL of 1x PBS buffer containing MTT dye (in 1x PBS buffer, 5 mg/mL) to each well. The plates were wrapped in aluminum foil and incubated for 3 h. After 3 h, all liquid was aspirated carefully without disturbing the formazan crystals. To each well, 300 µL of DMSO was added to dissolve the crystals. Once dissolved, the DMSO solution was transferred to a clear 96-well plate (100 µL/well). The absorbance was read on a 96-well plate reader at 570 nm. The cytotoxicity of the HEK cells was monitored for up to 4 days.
The seeds were generated by aggregating recombinant αS (100 µM) in the absence and presence of SK-129 at an equimolar ratio under the ThT aggregation kinetic conditions for seven days. In the case of seeds from the brain, we used a PMCA sample (5th cycle) generated from the brain seeds in the absence and presence of SK-129 at an equimolar ratio.
Supplementary Fig. 27. Effect of SK-129 on the PD fibrils catalyzed aggregation of αS templated by PMCA technique. a, The representative confocal images of HEK cells after treatment with PMCA samples from the PD and control brain. The green color images are due to the intracellularly expressed αSA53T-YFP. The αSA53T-YFP inclusions, αS-pS-129, and DAPI are represented by green, red, and blue colors. The αSA53T-YFP inclusions are indicated by white arrows. b, The αSA53T-YFP inclusions, P62, and DAPI are represented by green, red, and blue colors. The αSA53T-YFP inclusions are indicated by white arrows. c, The statistical analysis of the relative viability of HEK cells treated with the indicated conditions for 24 h determined using the MTT-reduction toxicity assay. The data were expressed as mean and the error bars report the s.e.m.
(n = 4 independent cell viability experiments and each n consisted of 4 technical replicates). The statistical analysis was performed using ANOVA with Tukey’s multiple comparison test. *p<0.05, **p<0.01, ***p<0.001, ****p<0.0001. Source data are provided as a Source Data file.

αS aggregation = target: T1, αS aggregation (Homo sapiens, UniProt P37840); experiment: ThT aggregation kinetic assay, de novo, WT αS; type: biochemical; details: 100 μM analog, 100 μM αS
T1 construct: made in house; host or cells: Escherichia coli BL21(DE3), periplasm
Method: The aggregation kinetics of αS was monitored using ThT fluorescence assay (λex = 450 nm and λem = 485 nm). To study the aggregation kinetics of αS, the ThT dye at a final concentration of 50 μM was added to 100 μM αS solution in the aggregation buffer (1 x PBS buffer) with and without various concentrations of SK-129 in a Costar black 96–well plate (Corning Inc., Kennebunk, ME). The small molecules were dissolved in dimethyl sulfoxide (DMSO; final DMSO concentration = 0.5%, v/v). The final volume in each well was 140 μL. The plate was incubated at 37 °C with 16 min shaking (434 rpm) and 44 min without shaking in an Infinite M200PRO plate reader (Tecan, Männedorf, Switzerland) and fluorescence was recorded after every hour. We used two methods to quantify the effect of molecules on the aggregation of αS; either we have reported the t50 (time required to reach 50% fluorescence of ThT), which was extracted by fitting the ThT curve as a sigmoidal fit or the absolute ThT fluorescence intensity was reported. […] In the second method, we determined the final ThT fluorescence intensity for the aggregation of αS/Aβ42(with or without ligands) as an average of three separate experiments. […]
The aggregation kinetics of WT αS and αS variants were monitored and was carried out with a slightly modified protocol. […] The aggregation of proteins was monitored at the indicated times (See the main manuscript). […]

Structure (SMILES): COC(=O)c1cc(OCC(=O)O)c2cccc(NC(=O)c3cc(OC(C)C)c4cccc(NC(=O)c5cc(OCC(=O)O)c6cccc(NC(=O)c7cc(OC(C)C)c8cccc([N+](=O)[O-])c8n7)c6n5)c4n3)c2n1 [SK-129]
- Relative cell viability (Supp. Figure 27) ([1]; trial 1): 0.879
- Relative cell viability (Supp. Figure 27) ([1]; trial 2): 0.798
- Relative cell viability (Supp. Figure 27) ([1]; trial 3): 0.821
- Relative cell viability (Supp. Figure 27) ([1]; trial 4): 0.823
- Relative cell viability (Supp. Figure 27) ([1]; trial 5): 0.659
- Relative cell viability (Supp. Figure 27) ([1]; trial 6): 0.702
- Relative cell viability (Supp. Figure 27) ([1]; trial 7): 0.735
- Relative cell viability (Supp. Figure 27) ([1]; trial 8): 0.834
- Relative cell viability (Supp. Figure 27) ([1]; trial 9): 0.865
- Relative cell viability (Supp. Figure 27) ([1]; trial 10): 0.808
- Relative cell viability (Supp. Figure 27) ([1]; trial 11): 0.853
- Relative cell viability (Supp. Figure 27) ([1]; trial 12): 0.884
- Relative cell viability (Supp. Figure 27) ([1]; trial 13): 0.902
- Relative cell viability (Supp. Figure 27) ([1]; trial 14): 0.783
- Relative cell viability (Supp. Figure 27) ([1]; trial 15): 0.732
- Relative cell viability (Supp. Figure 27) ([1]; trial 16): 0.693
- cell viability of HEK cells ([1]; PD fibrils+SK-129, 24 h, MTT, PD fibrils alone 50.5 ± 5.4%): 85.6 ± 7.8%
- antagonist activity against αS aggregation among analogs (αS aggregation): most potent antagonist
